Here are results for one compound from US9849191B2, “Protein-polymer-drug conjugates” (MERSANA THERAPEUTICS, INC., priority 2013, dated 2017).

The nature of this data set: Tolerability of Auristatin F-hydroxypropylamide (MTD study). Type of data set: in vivo, mice. The settings on record: n=6. An excerpt:
The vehicle control group received physiological saline.

Non-standard residues stand in square brackets, D forms with d. Residues, ends and D or L forms follow the SMILES beside them. *: point of attachment. Dolaproine = CO[C@@H]([C@@H]1CCCN1)[C@@H](C)C(=O)O; Dil = CC[C@H](C)[C@H](NC)[C@@H](CC(=O)O)OC; NMe2Val = CC(C)[C@@H](C(=O)*)N(C)C; NH(3-hydroxypropyl) = OCCCN*

In the case of `CC[C@H](C)[C@@H]([C@@H](CC(=O)N1CCC[C@H]1[C@H](OC)[C@@H](C)C(=O)N[C@@H](Cc1ccccc1)C(=O)NCCCO)OC)N(C)C(=O)[C@@H](NC(=O)[C@H](C(C)C)N(C)C)C(C)C` [AF-HPA, auristatin F hydroxypropyl amide] (NMe2Val-V[Dil][Dolaproine]F-{NH(3-hydroxypropyl)}), the Mortality or morbidity is, setting by setting: (3.2 mg/kg single IV dose) 1 animal died on day 7, 3; (4.7 mg/kg single IV dose) 1 animal died on Day 3, 1.
